Laboratory results published in patent publication US9815840B2 (CJ Healthcare Corporation, priority 2013, dated 2017).
pIC50: −log10 of the molar value.

biological target: c-Met (Homo sapiens (Human), UniProt P08581); assay: Analysis of the inhibition of c-Met activity (ADP-Glo Kinase Assay); type: biochemical; details: c-Met enzyme 2 ng/μL, 250 μM G4Y1 peptide, 50 μM ATP, 1 hour at room temperature, luminescence
Method: Analysis of the Inhibition of c-Met Activity (ADP-Glo™ Kinase Assay
The inhibitory effect of the compounds of the present invention on the activity of c-Met was confirmed as follows.
Specifically, 250 μM G4Y1 peptide, which serves as a substrate for c-Met enzyme (2 ng/μL), and 50 μM ATP were subjected to an enzyme reaction in a reaction buffer (40 mM Tris-HCl (pH 7.5), 20 mM MgCl2, 0.1 mg/mL bovine serum albumin, and 50 μM DTT). The compounds prepared in Examples and comparative compounds were treated at various concentrations and reacted at room temperature for 1 hour, sequentially added with ADP-Glo™ Reagent and the Kinase detection reagent, and reacted at room temperature for 40 minutes and 30 minutes, respectively.
Then, luminescence of the compounds was measured using the Wallaac Victor 2™ (PerkinElmer life sciences, 1420-042). The activity of c-Met inhibitors was evaluated by analyzing the data based on the measured RLU values. The activity of c-Met inhibitors was evaluated as the percentage of remaining activity of the c-Met enzyme in the samples treated with the compounds at concentrations to be tested, with the RLU value of the sample set at 100% control group.

Sequence of c-Met (P08581 25-1390): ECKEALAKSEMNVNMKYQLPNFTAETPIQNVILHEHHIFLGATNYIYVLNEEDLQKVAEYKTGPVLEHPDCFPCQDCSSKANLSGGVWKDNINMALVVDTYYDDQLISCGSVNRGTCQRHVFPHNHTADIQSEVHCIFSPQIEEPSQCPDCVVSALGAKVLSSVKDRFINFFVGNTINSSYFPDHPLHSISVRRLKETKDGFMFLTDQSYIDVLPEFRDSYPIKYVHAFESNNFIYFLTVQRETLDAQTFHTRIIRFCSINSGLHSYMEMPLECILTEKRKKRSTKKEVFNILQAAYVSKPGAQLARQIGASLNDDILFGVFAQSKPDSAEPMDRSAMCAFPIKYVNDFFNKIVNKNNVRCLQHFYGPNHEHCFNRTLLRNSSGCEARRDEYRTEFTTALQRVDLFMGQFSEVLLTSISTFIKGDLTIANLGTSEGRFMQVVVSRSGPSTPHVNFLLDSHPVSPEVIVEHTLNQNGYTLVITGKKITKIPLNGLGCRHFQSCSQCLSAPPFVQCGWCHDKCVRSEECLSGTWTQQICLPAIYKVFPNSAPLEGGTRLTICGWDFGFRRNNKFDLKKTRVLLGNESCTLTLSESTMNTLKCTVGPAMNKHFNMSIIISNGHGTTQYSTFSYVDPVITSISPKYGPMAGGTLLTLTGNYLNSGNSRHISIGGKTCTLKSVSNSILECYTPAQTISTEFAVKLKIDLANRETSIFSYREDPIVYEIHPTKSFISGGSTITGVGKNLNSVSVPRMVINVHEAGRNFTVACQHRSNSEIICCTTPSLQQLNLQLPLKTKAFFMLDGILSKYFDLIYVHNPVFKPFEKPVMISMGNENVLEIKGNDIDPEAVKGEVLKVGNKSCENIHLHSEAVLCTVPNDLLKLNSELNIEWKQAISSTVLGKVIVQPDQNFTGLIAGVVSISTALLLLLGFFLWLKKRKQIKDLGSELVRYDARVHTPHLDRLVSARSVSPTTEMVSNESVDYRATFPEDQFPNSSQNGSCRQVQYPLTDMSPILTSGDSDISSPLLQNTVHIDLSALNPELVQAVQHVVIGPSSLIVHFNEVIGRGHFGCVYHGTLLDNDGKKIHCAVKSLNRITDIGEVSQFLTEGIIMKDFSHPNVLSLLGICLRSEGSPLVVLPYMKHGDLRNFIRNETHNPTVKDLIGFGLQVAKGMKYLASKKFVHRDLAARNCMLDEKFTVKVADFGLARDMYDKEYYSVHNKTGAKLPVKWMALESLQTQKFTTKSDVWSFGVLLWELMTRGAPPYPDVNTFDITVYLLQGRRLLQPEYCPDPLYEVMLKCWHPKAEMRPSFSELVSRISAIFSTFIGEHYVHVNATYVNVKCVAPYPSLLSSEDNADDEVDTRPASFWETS

| Structure (SMILES) | pIC50 |
| --- | --- |
| CCOc1ccn(-c2ccc(F)cc2)c(=O)c1C(=O)Nc1ccc(Oc2ccnn3ccc(-c4ccncc4)c23)c(F)c1 [Example 7] | > 7.40 |
| CCOc1ccn(-c2ccc(F)cc2)c(=O)c1C(=O)Nc1ccc(Oc2ccnn3ccc(-c4cccc(C=O)c4)c23)c(F)c1 [Example 23, 4-ethoxy-N-(3-fluoro-4-((5-(3-formylphenyl)pyrrolo[1,2-b]pyridazin-4-yl)oxy)phenyl)-1-(4-fluorophenyl)-2-oxo-1,2-dihydropyridin-3-carboxamide] | > 7.40 |
| O=C(Nc1ccc(Oc2ccnn3ccc(-c4cccc(CO)c4)c23)c(F)c1)c1cccn(-c2ccc(F)cc2)c1=O [Example 29] | > 7.40 |
| CCOc1ccn(-c2ccc(F)cc2)c(=O)c1C(=O)Nc1ccc(Oc2ccnn3ccc(-c4cccc(C(C)(C)O)c4)c23)c(F)c1 [Example 43, 4-ethoxy-N-(3-fluoro-4-((5-(3-(2-hydroxypropan-2-yl)phenyl)pyrrolo[1,2-b]pyridazin-4-yl)oxy)phenyl)-1-(4-fluorophenyl)-2-oxo-1,2-dihydropyridin-3-carboxamide] | > 7.40 |
| CCOc1ccn(-c2ccc(F)cc2)c(=O)c1C(=O)Nc1ccc(Oc2ccnn3ccc(-c4cccc(C(C)O)c4)c23)c(F)c1 (centres unmarked) [Example 46, 4-ethoxy-N-(3-fluoro-4-((5-(3-(1-hydroxyethyl)phenyl)pyrrolo[1,2-b]pyridazin-4-yl)oxy)phenyl)-1-(4-fluorophenyl)-2-oxo-1,2-dihydropyridin-3-carboxamide] | > 7.40 |
| CC(O)c1cccc(-c2ccn3nccc(Oc4ccc(NC(=O)c5cccn(-c6ccc(F)cc6)c5=O)cc4F)c23)c1 (centres unmarked) [Example 47, N-(3-fluoro-4-((5-(3-(1-hydroxyethyl)phenyl)pyrrolo[1,2-b]pyridazin-4-yl)oxy)phenyl)-1-(4-fluorophenyl)-2-oxo-1,2-dihydropyridin-3-carboxamide] | > 7.40 |
| CCOc1ccn(-c2ccc(F)cc2)c(=O)c1C(=O)Nc1ccc(Oc2ccnn3ccc(-c4cccc(CN5CCOCC5)c4)c23)c(F)c1 [Example 49] | > 7.40 |
| CCOc1ccn(-c2ccc(F)cc2)c(=O)c1C(=O)Nc1ccc(Oc2ccnn3ccc(-c4cccc(C(=O)N5CCOCC5)c4)c23)c(F)c1 [Example 50, 4-ethoxy-N-(3-fluoro-4-((5-(3-morpholin-4-carbonylphenyl)pyrrolo[1,2-b]pyridazin-4-yl)oxy)phenyl)-1-(4-fluorophenyl)-2-oxo-1,2-dihydropyridin-3-carboxamide] | > 7.40 |
| CCOc1ccn(-c2ccc(F)cc2)c(=O)c1C(=O)Nc1ccc(Oc2ccnn3ccc(-c4cccc(N)c4)c23)c(F)c1 [Example 53, 4-ethoxy-N-(3-fluoro-4-((5-(3-aminophenyl)pyrrolo[1,2-b]pyridazin-4-yl)oxy)phenyl)-1-(4-fluorophenyl)-2-oxo-1,2-dihydropyridin-3-carboxamide] | > 7.40 |

Results, then the compound that gave them:

| pIC50 | Structure (SMILES) |
| --- | --- |
| > 7.40 | CCOc1ccn(-c2ccc(F)cc2)c(=O)c1C(=O)Nc1ccc(Oc2ccnn3ccc(-c4cccc(CN(C)C)c4)c23)c(F)c1 [Example 56, N-(4-((5-(3-((dimethylamino)methyl)phenyl)pyrrolo[1,2-b]pyridazin-4-yl)oxy)-3-fluorophenyl)-4-ethoxy-1-(4-fluorophenyl)-2-oxo-1,2-dihydropyridin-3-carboxamide] |
| > 7.40 | Cc1ccc(-c2ccn3nccc(Oc4ccc(NC(=O)C5(C(=O)Nc6ccc(F)cc6)CC5)cc4F)c23)cc1N [Example 78] |
| > 7.40 | Cc1c(N)cccc1-c1ccn2nccc(Oc3ccc(NC(=O)C4(C(=O)Nc5ccc(F)cc5)CC4)cc3F)c12 [Example 79] |
| > 7.40 | COc1ccc(-c2ccn3nccc(Oc4ccc(NC(=O)C5(C(=O)Nc6ccc(F)cc6)CC5)cc4F)c23)cc1N [Example 82] |
| > 7.40 | Nc1ccc(F)c(-c2ccn3nccc(Oc4ccc(NC(=O)C5(C(=O)Nc6ccc(F)cc6)CC5)cc4F)c23)c1 [Example 83] |
